In patent US20070066651A1, “Pyrazoline derivatives useful for the treatment of cancer” (LABORATORIOS DEL DR. ESTEVE S.A., priority 2004, published 2007):
pIC50: −log10 of the molar value.

Assays:
human recombinant COX-2 = biological target: T1, human recombinant COX-2 (Homo sapiens, UniProt P35354); test: Cyclooxygenase enzyme assay (TLC method), COX-2; type: biochemical; conditions: human recombinant COX-2, preincubation 90-120 min, [1-14C] arachidonic acid; read-out: IC50 COX-2, inhibition of cyclooxygenase activity
T1 construct: purchased Oxford Biomedical Research Inc
T1 sequence (P35354 18-604): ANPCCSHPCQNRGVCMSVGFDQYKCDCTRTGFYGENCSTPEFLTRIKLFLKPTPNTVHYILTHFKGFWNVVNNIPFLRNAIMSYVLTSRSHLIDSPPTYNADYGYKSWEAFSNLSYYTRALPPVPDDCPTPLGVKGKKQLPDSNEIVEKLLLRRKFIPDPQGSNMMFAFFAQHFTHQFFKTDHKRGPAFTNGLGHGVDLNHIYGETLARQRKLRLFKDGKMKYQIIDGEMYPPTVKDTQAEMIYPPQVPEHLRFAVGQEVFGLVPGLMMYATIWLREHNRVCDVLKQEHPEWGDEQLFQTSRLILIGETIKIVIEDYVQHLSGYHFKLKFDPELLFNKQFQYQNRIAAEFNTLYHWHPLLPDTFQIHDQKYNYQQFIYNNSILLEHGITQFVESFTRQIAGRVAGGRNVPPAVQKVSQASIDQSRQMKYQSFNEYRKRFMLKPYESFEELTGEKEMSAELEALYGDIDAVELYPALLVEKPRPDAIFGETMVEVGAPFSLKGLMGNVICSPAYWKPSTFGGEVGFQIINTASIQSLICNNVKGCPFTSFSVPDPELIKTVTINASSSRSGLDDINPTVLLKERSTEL
Method: The compounds of formula I are potent inhibitors of COX-2. […] The resulting radiolabeled prostanoid compounds, i.e., the products of COX-2 reaction with arachidonic acid, were quantified.
Cyclooxygenase activity of ovine COX-1 (Oxford Biomedical Research Inc.) and human recombinant COX-2 (Oxford Biomedical Research Inc.) was assayed by a thin layer chromatography (TLC) method as follows. All inhibitors were dissolved in dimethyl sulfoxide to a stock solution of 5 mM. Human recombinant COX-2 (3 units) or ovine COX-1 (15 units) was incubated with inhibitors at several concentrations in a solution containing 100 mM Tris-HCl, pH7.8, 500 μM phenol and hematin for 90 to 120 minutes at room temperature (24° C.). In controls, equal volumes of DMSO without drug were added to the incubation mixture. After incubation for 90-120 minutes, [1-^14C] arachidonic acid (50 μM, 51 mCi/mmol) (DuPont NEN) was added and incubated at 37° C. for 2 minutes. The reaction was terminated by extraction with 1 ml of ethyl acetate. The ethyl acetate layer was transferred into a fresh tube and evaporated to dryness in a Speedvac vacuum dryer. […] Radiolabeled prostanoid compounds (the products of COX enzymatic reaction with radiolabeled arachidonic acid substrate) were quantitated with a radioactivity scanner (Fuji, Phosphorimager). […]

ovine COX-1 = biological target: T2, ovine COX-1 (Ovis aries, UniProt P05979); test: Cyclooxygenase enzyme assay (TLC method), COX-1; type: biochemical; conditions: ovine COX-1, preincubation 90-120 min, [1-14C] arachidonic acid; read-out: IC50 COX-1, inhibition of cyclooxygenase activity
T2 construct: purchased Oxford Biomedical Research Inc
T2 sequence (P05979 25-600): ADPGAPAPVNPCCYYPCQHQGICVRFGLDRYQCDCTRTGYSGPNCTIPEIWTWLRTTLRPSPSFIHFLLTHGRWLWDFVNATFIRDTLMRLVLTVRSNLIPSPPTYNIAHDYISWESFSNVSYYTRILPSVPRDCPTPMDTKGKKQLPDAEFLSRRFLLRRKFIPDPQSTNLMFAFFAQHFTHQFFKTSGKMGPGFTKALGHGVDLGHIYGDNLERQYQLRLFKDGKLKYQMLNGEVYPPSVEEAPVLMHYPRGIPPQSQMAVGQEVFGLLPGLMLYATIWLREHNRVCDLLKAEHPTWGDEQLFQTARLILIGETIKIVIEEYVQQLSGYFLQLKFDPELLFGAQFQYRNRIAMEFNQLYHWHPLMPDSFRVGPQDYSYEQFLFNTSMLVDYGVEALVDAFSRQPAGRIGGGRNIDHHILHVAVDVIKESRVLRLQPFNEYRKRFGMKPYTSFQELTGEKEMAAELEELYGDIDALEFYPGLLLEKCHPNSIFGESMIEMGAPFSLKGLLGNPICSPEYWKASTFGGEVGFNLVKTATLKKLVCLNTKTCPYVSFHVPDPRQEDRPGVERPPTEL
Method: Cyclooxygenase activity of ovine COX-1 (Oxford Biomedical Research Inc.) and human recombinant COX-2 (Oxford Biomedical Research Inc.) was assayed by a thin layer chromatography (TLC) method as follows. All inhibitors were dissolved in dimethyl sulfoxide to a stock solution of 5 mM. Human recombinant COX-2 (3 units) or ovine COX-1 (15 units) was incubated with inhibitors at several concentrations in a solution containing 100 mM Tris-HCl, pH7.8, 500 μM phenol and hematin for 90 to 120 minutes at room temperature (24° C.). In controls, equal volumes of DMSO without drug were added to the incubation mixture. After incubation for 90-120 minutes, [1-^14C] arachidonic acid (50 μM, 51 mCi/mmol) (DuPont NEN) was added and incubated at 37° C. for 2 minutes. The reaction was terminated by extraction with 1 ml of ethyl acetate. The ethyl acetate layer was transferred into a fresh tube and evaporated to dryness in a Speedvac vacuum dryer. The contents of the tubes were reconstituted in […] of ethyl acetate and spotted on a TLC plate (J. T. Baker, Phillipsburg, N.J.) and developed in a mobile phase containing chloroform/methanol (95:5) at 4° C. Radiolabeled prostanoid compounds (the products of COX enzymatic reaction with radiolabeled arachidonic acid substrate) were quantitated with a radioactivity scanner (Fuji, Phosphorimager). […]

DLD-1 cells = test: Soft agar assay, colony growth of DLD-1 cells; type: cell-based, human; conditions: highest concentration tested (range 10 μM to 75 μM), one dose, stained after 20 days, versus untreated control cells
Method: The Example 1 and 24 compounds were compared to the COX-2 inhibitor celecoxib in inhibiting the growth of DLD-1 cells in soft agar. DLD-1 cells are human colorectal carcinoma cells that overexpress COX-2. DLD-1 cells grow in soft agar and form tumors in nude mice. The soft agar assay was performed as follows. A layer of bottom agar ([…]) was placed onto 60 mm^2 tissue culture dishes. The tumor cells were trypsinized from normal growth flasks while in exponential growth. The cells were counted by using a hemacytometer and 1.0×10^5 cells were placed into the top agar mixture containing growth medium, 4% noble agar and various concentrations of drugs. The concentration range was normally between 10 μM to 75 μM. The cells were not refed during the assay system; therefore, the cells were treated with one dose of the agents. The plates were stained 20 days later with a 0.05% (w/v) nitroblue tetrazolium solution (which stains only viable cells) for 48 hours. The results are shown in FIG. 1, the y-axis being the percent of cell colonies remaining in comparison to untreated control cells.

Structure (SMILES): NS(=O)(=O)c1ccc(N2N=C(C(F)(F)F)CC2c2ccccc2)cc1 (stereo not drawn) [Example 1, 1-(4-sulfamylphenyl)-3-trifluoromethyl-5-phenyl-2-pyrazoline]
- pIC50 (human recombinant COX-2): 7.00
- pIC50 (ovine COX-1): < 4.00
- inhibition of DLD-1 cell colony growth in soft agar (DLD-1 cells): 100%

Structure (SMILES): NS(=O)(=O)c1ccc(N2N=C(C(F)(F)F)CC2c2c[nH]c3ccccc23)cc1 (stereo not drawn) [Example 24, 1-(4-sulfamylphenyl)-3-trifluoromethyl-5-(3-indolyl)-2-pyrazoline]
- pIC50 (human recombinant COX-2): 7.11
- pIC50 (ovine COX-1): < 4.00
- inhibition of DLD-1 cell colony growth in soft agar (DLD-1 cells): 100%
